Several values for one entry are separate records, joined by “and”; a condition that tells them apart may be missing. Equal entries are not always repeated. Toxic doses and inconclusive results are not listed. Cut-off read from the data, not from the text of the source: active = T/C of 150% or more; inactive = T/C below 125%.
Test system: L1210 leukemia ip in BDF1 mice, survival T/C
Test: NCI In Vivo Anticancer Drug Screen. Data for tumor model L1210 Leukemia (intraperitoneal) in B6D2F1 (BDF1) mice
Conditions: endpoint: mean survival time, higher = longer survival
How it was run: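 Each compound was tested against a transplantable tumor grown in mice. The endpoint was survival, with treated animals benchmarked against vehicle controls as a simple ratio.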

[1] = dose: 100.0 mg/kg/injection, schedule: Q01DX001 (ip), vehicle: Klucel (hydroxypropylcellulose) (HPC)
[2] = dose: 100.0 mg/kg/injection, schedule: Q01DX009 (ip), vehicle: Klucel (hydroxypropylcellulose) (HPC)
[3] = dose: 100.0 mg/kg/injection, schedule: Q04DX003 (ip), vehicle: Klucel (hydroxypropylcellulose) (HPC)
[4] = dose: 200.0 mg/kg/injection, schedule: Q01DX001 (ip), vehicle: Klucel (hydroxypropylcellulose) (HPC)
[5] = dose: 200.0 mg/kg/injection, schedule: Q01DX009 (ip), vehicle: Klucel (hydroxypropylcellulose) (HPC)
[6] = dose: 200.0 mg/kg/injection, schedule: Q04DX003 (ip), vehicle: Klucel (hydroxypropylcellulose) (HPC)
[7] = dose: 50.0 mg/kg/injection, schedule: Q01DX001 (ip), vehicle: saline
[8] = dose: 100.0 mg/kg/injection, schedule: Q01DX001 (ip), vehicle: saline
[9] = dose: 200.0 mg/kg/injection, schedule: Q01DX001 (ip), vehicle: saline
[10] = dose: 400.0 mg/kg/injection, schedule: Q01DX001 (ip), vehicle: saline
[11] = dose: 100.0 mg/kg/injection, schedule: Q01DX001 (ip), vehicle: saline with Tween-80
[12] = dose: 100.0 mg/kg/injection, schedule: Q01DX001 (ip), vehicle: carboxymethylcellulose (CMC)
[13] = dose: 200.0 mg/kg/injection, schedule: Q01DX001 (ip), vehicle: carboxymethylcellulose (CMC)
[14] = dose: 400.0 mg/kg/injection, schedule: Q01DX001 (ip), vehicle: carboxymethylcellulose (CMC)
[15] = dose: 400.0 mg/kg/injection, schedule: Q04DX003 (ip), vehicle: Klucel (hydroxypropylcellulose) (HPC)
[16] = dose: 100.0 mg/kg/injection, schedule: Q01DX009 (ip), vehicle: saline with Tween-80
[17] = dose: 100.0 mg/kg/injection, schedule: Q04DX003 (ip), vehicle: other
[18] = dose: 200.0 mg/kg/injection, schedule: Q01DX009 (ip), vehicle: saline with Tween-80
[19] = dose: 200.0 mg/kg/injection, schedule: Q04DX003 (ip), vehicle: other
[20] = dose: 400.0 mg/kg/injection, schedule: Q01DX009 (ip), vehicle: saline with Tween-80
[21] = dose: 400.0 mg/kg/injection, schedule: Q04DX003 (ip), vehicle: other
[22] = dose: 100.0 mg/kg/injection, schedule: Q04DX003 (ip), vehicle: saline with Tween-80
[23] = dose: 200.0 mg/kg/injection, schedule: Q04DX003 (ip), vehicle: saline with Tween-80
[24] = dose: 400.0 mg/kg/injection, schedule: Q04DX003 (ip), vehicle: saline with Tween-80

Measured: T/C

OCCOC1CCCC=C1Cl (stereo not drawn)
inactive: dose: 100.0 mg/kg/injection, schedule: Q01DX001 (ip), vehicle: acetone 95 % of control | dose: 200.0 mg/kg/injection, schedule: Q01DX001 (ip), vehicle: acetone 98 % of control | dose: 400.0 mg/kg/injection, schedule: Q01DX001 (ip), vehicle: acetone 91 % of control

Nc1nc(=S)[nH]c(C(=O)O)c1Oc1ccccc1
inactive: dose: 50.0 mg/kg/injection, schedule: Q01DX009 (ip), vehicle: Klucel (hydroxypropylcellulose) (HPC) 87 % of control | dose: 50.0 mg/kg/injection, schedule: Q04DX003 (ip), vehicle: Klucel (hydroxypropylcellulose) (HPC) 86 % of control | [1] 92 % of control | [2] 102 % of control | [3] 89 % of control | [4] 94 % of control | [5] 95 % of control | [6] 87 % of control

CCCCCCCCCCCCCCCCC[As](=O)(O)CCCCCCCCCCCCCCCCC
inactive: [7] 101 % of control | [8] 95 % of control | [9] 89 % of control | [10] 97 % of control

Cc1nc(N)[nH]c(=O)c1CCCNCc1ccccn1
inactive: dose: 25.0 mg/kg/injection, schedule: Q01DX001 (ip), vehicle: saline with Tween-80 101 % of control | dose: 50.0 mg/kg/injection, schedule: Q01DX001 (ip), vehicle: saline with Tween-80 98 % of control | [11] 93 % of control

CC(=O)Nc1ccc(Cc2ccc(NC(C)=O)cc2[N+](=O)[O-])c([N+](=O)[O-])c1
inactive: [12] 105 % of control | [13] 100 % of control | [14] 93 % of control

CC(=O)Nc1cccc2ccc([N+](=O)[O-])cc12
inactive: [2] 96 % of control | [3] 94 % of control | [5] 98 % of control | [6] 105 % of control | dose: 400.0 mg/kg/injection, schedule: Q01DX009 (ip), vehicle: Klucel (hydroxypropylcellulose) (HPC) 98 % of control | [15] 98 % of control

CCCCCOc1ccc(Nc2c3ccccc3nc3ccccc23)cc1
inactive: [1] 102 % of control | [4] 111 % of control | dose: 400.0 mg/kg/injection, schedule: Q01DX001 (ip), vehicle: Klucel (hydroxypropylcellulose) (HPC) 107 % of control

CNc1ccccc1C(=O)N/N=C/c1c(O)ccc2ccccc12
inactive: dose: 100.0 mg/kg/injection, schedule: Q04DX002 (ip), vehicle: saline 99 % of control | dose: 200.0 mg/kg/injection, schedule: Q04DX002 (ip), vehicle: saline 96 % of control | dose: 400.0 mg/kg/injection, schedule: Q04DX002 (ip), vehicle: saline 96 % of control

CC(C)(C)SC1CC(=O)OC1=O (stereo not drawn)
inactive: dose: 87.5 mg/kg/injection, schedule: Q04DX003 (ip), vehicle: saline with Tween-80 102 % of control | dose: 175.0 mg/kg/injection, schedule: Q04DX003 (ip), vehicle: saline with Tween-80 106 % of control | dose: 350.0 mg/kg/injection, schedule: Q04DX003 (ip), vehicle: saline with Tween-80 109 % of control

Cc1ccc(S(=O)(=O)NN=C2CCC(C(C)(C)C)CC2)cc1 (stereo not drawn)
inactive: [16] 88 % of control | [17] 91 % of control | [18] 88 % of control | [19] 89 % of control | [20] 91 % of control | [21] 96 % of control

Cc1cc(C)c(NS(=O)(=O)c2ccc([N+](=O)[O-])cc2)c(C)c1
inactive: [22] 89 % of control | [23] 93 % of control | [24] 86 % of control

NC(Cc1cccnc1)C(=O)O (stereo not drawn)
inactive: [11] 109 % of control | dose: 200.0 mg/kg/injection, schedule: Q01DX001 (ip), vehicle: saline with Tween-80 103 % of control | dose: 400.0 mg/kg/injection, schedule: Q01DX001 (ip), vehicle: saline with Tween-80 98 % of control

CC(=O)OCC1OC(N2CCc3cc([N+](=O)[O-])ccc32)C(OC(C)=O)C(OC(C)=O)C1OC(C)=O (stereo not drawn)
inactive: [7] 97 % of control | [8] 96 % of control | [9] 96 % of control

NC(=O)c1nccnc1Cl
inactive: [16] 91 % of control | [22] 100 % of control | [18] 98 % of control | [23] 97 % of control | [24] 110 % of control

CC/C(C)=N/Nc1ccc([N+](=O)[O-])cc1[N+](=O)[O-]
inactive: dose: 100.0 mg/kg/injection, schedule: Q01DX001 (ip), vehicle: other 94 % of control | dose: 200.0 mg/kg/injection, schedule: Q01DX001 (ip), vehicle: other 94 % of control | dose: 400.0 mg/kg/injection, schedule: Q01DX001 (ip), vehicle: other 97 % of control

Cc1nnc2c([N+](=O)[O-])cccn12
inactive: [8] 98 % of control | [9] 103 % of control

COC(=O)C1(C)CCCC2(C)c3cc(OC)ccc3C3OC3C12 (stereo not drawn)
inactive: [17] 103 % of control | [19] 100 % of control | [21] 101 % of control

CC1(c2ccc3ccccc3c2)OCC2(CCCCC2)CO1
inactive: dose: 50.0 mg/kg/injection, schedule: Q04DX002 (ip), vehicle: Klucel (hydroxypropylcellulose) (HPC) 93 % of control | dose: 100.0 mg/kg/injection, schedule: Q04DX002 (ip), vehicle: Klucel (hydroxypropylcellulose) (HPC) 100 % of control | dose: 200.0 mg/kg/injection, schedule: Q04DX002 (ip), vehicle: Klucel (hydroxypropylcellulose) (HPC) 100 % of control | dose: 400.0 mg/kg/injection, schedule: Q04DX002 (ip), vehicle: Klucel (hydroxypropylcellulose) (HPC) 96 % of control and 97 % of control

CCCCCc1ccc(C(=O)O)cc1
inactive: dose: 25.0 mg/kg/injection, schedule: Q01DX009 (ip), vehicle: saline with Tween-80 103 % of control | dose: 25.0 mg/kg/injection, schedule: Q04DX003 (ip), vehicle: saline with Tween-80 106 % of control | dose: 50.0 mg/kg/injection, schedule: Q01DX009 (ip), vehicle: saline with Tween-80 98 % of control | dose: 50.0 mg/kg/injection, schedule: Q04DX003 (ip), vehicle: saline with Tween-80 101 % of control | [16] 97 % of control | [22] 98 % of control and 102 % of control

COc1cc(OC)c2c(=O)c3ccoc3n(C)c2c1OC
inactive: dose: 50.0 mg/kg/injection, schedule: Q01DX001 (ip), vehicle: carboxymethylcellulose (CMC) 98 % of control | [12] 98 % of control | [13] 93 % of control | [14] 93 % of control

COc1cc2ccc(C(C)NCC#N)cc2cc1OC (stereo not drawn)
inactive: [2] 97 % of control | [3] 88 % of control | [5] 101 % of control | [6] 93 % of control | [15] 106 % of control

Cc1c2oc3c(C)ccc(C(=O)OCCN4CCN(c5ccccc5)CC4)c3nc-2c(C(=O)OCCN2CCN(c3ccccc3)CC2)c(N)c1=O
inactive: dose: 100.0 mg/kg/injection, schedule: Q04DX002 (ip), vehicle: saline with Tween-80 92 % of control | dose: 200.0 mg/kg/injection, schedule: Q04DX002 (ip), vehicle: saline with Tween-80 103 % of control | dose: 400.0 mg/kg/injection, schedule: Q04DX002 (ip), vehicle: saline with Tween-80 103 % of control

Cc1cc(/C=N/N2CCN(/N=C/c3cc(C)n(-c4ccccc4)c3C)CC2)c(C)n1-c1ccccc1
inactive: [12] 95 % of control | [13] 88 % of control | [14] 90 % of control

O=C(NCC(O)CI)c1ccc([N+](=O)[O-])cc1 (stereo not drawn)
inactive: [16] 104 % of control | [18] 102 % of control | [20] 89 % of control

CCCCCCCCCCCC[N+](C)(C)C
inactive: dose: 10.0 mg/kg/injection, schedule: Q01DX009 (ip), vehicle: saline 104 % of control | dose: 20.0 mg/kg/injection, schedule: Q01DX009 (ip), vehicle: saline 105 % of control

CCc1ccc(N=Nc2ccc(NC)cc2)cc1
inactive: [12] 98 % of control | [13] 93 % of control | [14] 98 % of control

COc1ccc(OC)c2c(=O)cc(C)[nH]c12
inactive: [8] 100 % of control | [9] 92 % of control | [10] 102 % of control

CCSCC1OC(n2cnc3c(N)ncnc32)CC1O (stereo not drawn)
inactive: [8] 98 % of control | [9] 104 % of control | [10] 92 % of control

Reference: PubChem BioAssay AID248 (DTP/NCI, 2004)
